Data published in the supplement of paper PMC10307832.

What was measured:
Assay in all cases: relative viability (nuclei count vs DMSO), 5 days (fraction); higher = more cells survive
IU1-47 + Bortezomib = compound: CC1=CC(=C(N1C2=CC=C(C=C2)Cl)C)C(=O)CN3CCCCC3 [IU1-47] + CC(C)C[C@H](NC(=O)[C@H](Cc1ccccc1)NC(=O)c1cnccn1)B(O)O [Bortezomib] (partner 0.002 µM)
How it was run: (§1)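 Five library-drug doses in √10 steps were combined with a fixed anchor-drug dose, or a single drug was given alone, by pin tool to lung cancer cell lines in 1536-well plates the day after seeding. Nuclei were stained and counted after 5 days. Relative viability is the nuclei count in treated wells over that in vehicle wells, taken as the median of duplicate plates.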

IU1-47 + Pictilisib = compound: CC1=CC(=C(N1C2=CC=C(C=C2)Cl)C)C(=O)CN3CCCCC3 [IU1-47] + CS(=O)(=O)N1CCN(Cc2cc3nc(-c4cccc5[nH]ncc45)nc(N4CCOCC4)c3s2)CC1 [Pictilisib] (partner 1 µM)
How it was run: as §1

IU1-47 + Olaparib = compound: CC1=CC(=C(N1C2=CC=C(C=C2)Cl)C)C(=O)CN3CCCCC3 [IU1-47] + O=C(c1cc(Cc2n[nH]c(=O)c3ccccc23)ccc1F)N1CCN(C(=O)C2CC2)CC1 [Olaparib] (partner 8 µM)
How it was run: as §1

FG-4592 + Dasatinib = compound: Cc1nc(C(=O)NCC(=O)O)c(O)c2ccc(Oc3ccccc3)cc12 [FG-4592] + Cc1nc(Nc2ncc(C(=O)Nc3c(C)cccc3Cl)s2)cc(N2CCN(CCO)CC2)n1 [Dasatinib] (partner 0.075 µM)
How it was run: as §1

Cell Line	relative viability (IU1-47 + Bortezomib; first compound 0.08 µM)	relative viability (IU1-47 + Bortezomib; first compound 0.253 µM)	relative viability (IU1-47 + Bortezomib; first compound 0.8 µM)	relative viability (IU1-47 + Bortezomib; first compound 8 µM)	relative viability (IU1-47 + Pictilisib; first compound 0.08 µM)	relative viability (IU1-47 + Pictilisib; first compound 0.253 µM)	relative viability (IU1-47 + Pictilisib; first compound 0.8 µM)	relative viability (IU1-47 + Pictilisib; first compound 8 µM)	relative viability (IU1-47 + Olaparib; first compound 0.08 µM)	relative viability (IU1-47 + Olaparib; first compound 0.253 µM)	relative viability (IU1-47 + Olaparib; first compound 0.8 µM)	relative viability (IU1-47 + Olaparib; first compound 2.53 µM)	relative viability (IU1-47 + Olaparib; first compound 8 µM)	relative viability (FG-4592 + Dasatinib; first compound 0.08 µM)	relative viability (FG-4592 + Dasatinib; first compound 0.253 µM)	relative viability (FG-4592 + Dasatinib; first compound 0.8 µM)	relative viability (FG-4592 + Dasatinib; first compound 2.53 µM)	relative viability (FG-4592 + Dasatinib; first compound 8 µM)	relative viability (IU1-47 + Pictilisib; first compound 2.53 µM)	relative viability (IU1-47 + Bortezomib; first compound 2.53 µM)
201T	1.1	1.06	1.14	1.05	0.672	0.682	0.709	0.664	0.829	0.869	0.854	0.838	0.666	0.549	0.566	0.616	0.569	0.646		
A549					0.637	0.53	0.542	0.423	0.467	0.28	0.324		0.371						0.673	
A-427	1.01	0.968	1.06	0.841	0.736	0.84	0.789	0.632	0.81	0.811	0.716	0.82	0.711	0.649	0.611	0.741	0.725	0.717		
ABC-1	0.327	0.281	0.256	0.312	0.766	0.711	0.895	0.671	1.14	1.05	0.816		0.907	0.532	0.463	0.48	0.59	0.463		
BEN	0.755	0.906	1.07	0.641	0.644	0.566	0.583	0.594	1.1	1.06	1.12	1.11	0.933	0.323	0.348	0.262	0.365	0.305	0.41	0.848
CAL-12T	1.05	0.946	0.945	0.802	0.448	0.392	0.537	0.396	0.705	0.726	0.747	0.797	0.863	0.378	0.424	0.406	0.361	0.365	0.413	0.972
COR-L23	1.12	1.1	1.21	1.08	0.936	0.877	0.874	0.905	0.382	0.389	0.314	0.396	0.405	0.467	0.47	0.504	0.446	0.409	0.652	0.932
COR-L 105	1.23	1.01	0.851	0.708	0.421	0.411	0.352	0.396	0.817	0.78	0.699	0.665	0.745	0.309	0.306	0.294	0.258	0.286	0.379	0.899
Calu-6	1.2	1.02	0.957	0.998	1.13	1.07	0.861	0.856	0.618	0.566	0.586	0.617	0.616						0.972	0.96
ChaGo-K-1	0.953	0.971	0.952	0.682	0.753	0.758	0.62	0.43	0.433	0.393	0.435	0.452	0.362	0.584	0.577	0.516	0.542	0.592	0.457	1.27
EBC-1	0.516	0.528	0.535	0.542	0.45	0.387	0.416	0.336	0.685	0.691	0.696	0.663	0.766						0.501	0.715
EKVX	1.18	1.11	1.18	0.985	0.555	0.549	0.459	0.463	0.827	1.06	0.896		0.87	0.629	0.555	0.53	0.486	0.495	0.487	1.13
EMC-BAC-2	1.09	1.07	1.04	1.04	0.547	0.51	0.545	0.489	0.507	0.548	0.402	0.534	0.533	0.374	0.361	0.274	0.311	0.296	0.572	1.15
EPLC-272H	1.05	0.943	1.04	0.891	0.301	0.318	0.313	0.185	0.77	0.867	0.684	0.851	0.92	0.389	0.302	0.251	0.412	0.334		
H3255	1.15	1.12	0.766	0.619	0.542	0.431	0.488	0.522	0.64	0.609	0.569	0.54	0.561	0.361	0.418	0.417	0.404	0.48	0.537	0.793
HARA	1.19	1.21	1.1	0.971	0.407	0.504	0.371	0.336	1.02		0.703	0.632	0.567	0.272	0.208	0.266	0.24	0.234	0.509	1.17
HCC-15	1.11	1.05	1.05	0.856	0.8	0.703	0.76	0.65	0.75	0.722	0.767	0.711	0.662	0.65	0.601	0.536	0.554	0.681	0.427	0.928
HCC-44	0.891	0.851	0.89	0.898	0.551	0.603	0.665	0.593	1.07	0.978	1.03	1.06	0.93						0.672	0.873
HCC-78	0.712	0.562	0.49	0.596	0.192	0.19	0.218	0.206	0.803	0.792	0.805	0.59	0.813	0.472	0.333	0.379	0.386	0.32	0.189	0.381
HCC-366	1.13	1.02	1.25	0.866	0.215	0.115	0.149	0.145	0.511	0.328	0.423	0.312	0.292	0.624	0.607	0.339	0.573	0.414	0.137	

Cell Line	relative viability (IU1-47 + Bortezomib; first compound 0.08 µM)	relative viability (IU1-47 + Bortezomib; first compound 0.253 µM)	relative viability (IU1-47 + Bortezomib; first compound 0.8 µM)	relative viability (IU1-47 + Bortezomib; first compound 8 µM)	relative viability (IU1-47 + Pictilisib; first compound 0.08 µM)	relative viability (IU1-47 + Pictilisib; first compound 0.253 µM)	relative viability (IU1-47 + Pictilisib; first compound 0.8 µM)	relative viability (IU1-47 + Pictilisib; first compound 8 µM)	relative viability (IU1-47 + Olaparib; first compound 0.08 µM)	relative viability (IU1-47 + Olaparib; first compound 0.253 µM)	relative viability (IU1-47 + Olaparib; first compound 0.8 µM)	relative viability (IU1-47 + Olaparib; first compound 2.53 µM)	relative viability (IU1-47 + Olaparib; first compound 8 µM)	relative viability (FG-4592 + Dasatinib; first compound 0.08 µM)	relative viability (FG-4592 + Dasatinib; first compound 0.253 µM)	relative viability (FG-4592 + Dasatinib; first compound 0.8 µM)	relative viability (FG-4592 + Dasatinib; first compound 2.53 µM)	relative viability (FG-4592 + Dasatinib; first compound 8 µM)	relative viability (IU1-47 + Pictilisib; first compound 2.53 µM)	relative viability (IU1-47 + Bortezomib; first compound 2.53 µM)
HCC-827	1.22	1.12	1.05	1.11	1.27	1.1	1.14	1.1	0.617	0.694	0.631	0.683	0.648	0.264	0.379	0.386	0.259	0.282	0.957	1.08
HOP-62	0.926	1.05	0.701	0.77	0.966	0.891	0.818	0.524	0.428	0.622	0.404	0.554	0.604	0.637	0.569	0.567	0.642	0.628	0.494	0.753
IA-LM	0.917	0.899	0.904	0.824	0.333	0.374	0.306	0.348	0.748	0.863	0.958	0.979	0.903						0.394	0.782
LC-2-ad	1.03	1.08	1.1	0.97	0.428	0.509	0.427	0.45	0.726	0.711	0.673		0.732	0.513	0.559		0.536	0.66	0.423	1.03
LCLC-97TM1	0.9	1.13	0.455	0.261	0.194	0.258	0.204	0.165	0.44	0.461	0.352		0.21	0.873	0.734	0.907	0.928	1.03		0.425
LK-2					0.606	0.614	0.615	0.474	0.935	0.958	0.802	0.745	0.641	0.281	0.304		0.262	0.277	0.412	
NCI-H358					0.287	0.323	0.352	0.366	0.704	0.784	0.55	0.705	0.436	0.16	0.19	0.162	0.145	0.156		
NCI-H522									0.724	0.715	0.525	0.665	0.668	0.887	0.892	0.801	0.843	0.829		
NCI-H1299	1.08	1.06	1.09	0.945	0.893	0.881	0.749	0.911	0.982	1.03	0.958	0.923	0.959						1.05	0.989
NCI-H1395					0.597	0.65	0.569	0.433	0.46	0.432	0.44	0.452	0.412	0.446	0.416	0.373	0.364	0.365		
NCI-H1563	0.822	0.831	0.885	0.552	0.69	0.672	0.663	0.732						0.465	0.465	0.397	0.466	0.44	0.627	0.775
NCI-H1648									1.16	1.17	0.813	0.656	0.577							
NCI-H1703	0.278	0.354	0.273	0.504	0.254	0.255	0.218	0.25	0.387	0.39	0.447	0.355	0.487						0.32	0.403
NCI-H1793					0.284	0.293	0.363	0.262	0.861		1.1	1.01	0.87	0.37	0.311		0.354	0.328		
NCI-H1944					0.361	0.371	0.335	0.356	0.433	0.409	0.398	0.356	0.427	0.251	0.207	0.177	0.199	0.202		
NCI-H2170					0.309	0.308	0.287	0.331	0.705	0.652	0.634	0.693	0.652	0.592	0.478	0.412	0.59	0.497	0.305	
NCI-H2342									0.49	0.432	0.463	0.425	0.418	0.312	0.281	0.316	0.341	0.311		
SK-MES-1					0.402	0.396	0.351	0.371	0.823	0.771	0.664	0.652	0.786	0.534	0.434	0.351	0.365	0.34	0.398	
SW 900									0.859		1.19	1.11	0.976	0.889	0.57	0.444	0.55	0.461		
